Measured values taken from patent publication US8546090B2, “SIRT4 activities” (Massachusetts Institute of Technology, priority 2005, dated 2013).

Columns and labels:
[1] = system: MIN6 cells; experiment: Insulin secretion assay in MIN6 cells (ELISA); assay type: cell-based, mouse
Protocol: FIG. 4. The role of Sirt4 in insulin secretion. FIG. 4A. The levels of Sirt4 were reduced in MIN6 cells infected with virus that contained Sirt4 RNAi sequences compared to cells infected with pSUPER. FIG. 4B. Insulin secretion was measured from control or RNAi MIN6 cells. Cells were pre-incubated with KRB buffer containing 3 mM glucose, then cells were shifted to buffer containing either 3 mM (open bars) or 16.7 mM glucose (filled bars). Insulin in the buffer was measured by ELISA after a 45 min incubation at 37° C. FIG. 4C. Insulin remaining inside cells was measured at the end of the insulin secretion assays by ELISA.
FIG. 7. Elevated glutamate dehydrogenase activity contributes to increased insulin secretion in Sirt4 RNAi cells. FIG. 7A. MIN6 cells were co-infected with RNAi for Sirt4 and glutamate dehydrogenase, and protein levels were compared to control infections. FIG. 7B. Insulin secretion assays were performed in double-infected or control cells as described previously. FIG. 7C. Insulin secretion assays were performed in control or Sirt4 RNAi treated cells in the presence or absence of BCH, an activator of glutamate dehydrogenase.
MIN6 cells were plated in the wells of a 12-well plate at least 24-hours before secretion assays. […] Insulin concentration was measured by ELISA (Alpco Diagnostics; Windham, N.H.).

[2] = system: bovine recombinant glutamate dehydrogenase; experiment: Glutamate dehydrogenase assay after incubation with Sirt4; assay type: biochemical
Protocol: FIG. 6. Glutamate dehydrogenase inhibition by Sirt4. FIG. 6A. The enzymatic activity of glutamate dehydrogenase ([…]) was measured before (open bars, T=0) after a 60 min incubation (filled bars, T=60) at 37° C. with hSirt4-FLAG (50 ng) or a buffer control in the presence of 1 mM NAD^+. Experiments were replicated 3-5 times. FIG. 6B. Inhibition of glutamate dehydrogenase by Sirt4 requires 1 mM NAD^+. Glutamate dehydrogenase (50 mg) was incubated with Sirt4 at 37° C. in the presence (pink) or absence (blue) of 1 mM NAD^+. Aliquots (1 ml) were removed at T=0, 5, 15, 30, 60, or 120 min, and glutamate dehydrogenase activity was measured for each time point. FIG. 6C. The activity of glutamate dehydrogenase was measure in mitochondrial lysates (30 mg) from control or Sirt4 RNAi cells. Experiments were performed 3-5 times using cell lines from two separate infections.
Glutamate dehydrogenase (50 μg; Ultrapure from Sigma) was incubated with or without Sirt4 (10 ng) in […] of ADP-ribosylation buffer (50 mM Tris pH 8.0, 10 mM DTT, 150 mM NaCl) in the presence or absence of 1 mM NAD or 1 mM nicotinamide at 37° C. for the indicated times. Then, an aliquot of the reaction was assayed for glutamate dehydrogenase activity. Activity assays were performed at 25° C. using a BioSpec-1601 spectrophotometer (Shimadzu Scientific Instruments, Inc; Braintree, Mass.) at A340 based on the oxidation of NADH as described previously. Data was collected for 5-10 min. at 10 sec. intervals. At the end of each experiment, less than 10% of substrates had been depleted.
Sirt4 or a buffer control was incubated with bovine recombinant glutamate dehydrogenase for one hour in the presence of NAD. Then, the glutamate dehydrogenase activity was assessed by monitoring the disappearance of NADH (A340). […] To verify that this inhibition was dependent on the availability of NAD^+, we incubated Sirt4 with or without NAD^+ with glutamate dehydrogenase for various times. […]

NC1(C(=O)O)CC2CCC1C2 (centres unmarked) [BCH]
insulin secretion with BCH and 16.7 mM glucose compared to 16.7 mM glucose alone ([1]; Sirt4 RNAi treated MIN6 cells): did not secrete more insulin
insulin secretion with BCH and 16.7 mM glucose compared to 16.7 mM glucose alone ([1]; control MIN6 cells): enhanced insulin secretion

Sirt4: human Sirt4 with C-terminal FLAG, immunoprecipitated from 293T cells; ADP-ribosyltransferase
inhibition of glutamate dehydrogenase activity ([2]; after incubating for 12 hours): more than 90%
enzymatic activity of glutamate dehydrogenase ([2]; incubated one hour in the presence of NAD, versus buffer control): significantly reduced
inhibition of glutamate dehydrogenase activity ([2]; within 2 hours, in the presence of NAD+): 50%
